Results published in ChEMBL document CHEMBL4610106, “Identification of the Clinical Development Candidate MRTX849, a Covalent KRASG12C Inhibitor for the Treatment of Cancer” (J Med Chem, 2020).
Converted amounts (≈) assume the structure as drawn. Blank lines part the entries; values can stand above or below the compound they belong to.

Legend:
[1] = Half life in mouse whole blood at 5 uM by LC-MS/MS analysis; type: ADME, tissue-based
[2] = Half life in dog whole blood at 5 uM by LC-MS/MS analysis; type: ADME, tissue-based, Canis lupus familiaris
[3] = Half life in human whole blood at 5 uM by LC-MS/MS analysis; type: ADME, tissue-based
GTPase KRas = GTPase KRas (Homo sapiens, UniProt P01116, G12C)
Sequence of GTPase KRas (P01116 whole entry G12C): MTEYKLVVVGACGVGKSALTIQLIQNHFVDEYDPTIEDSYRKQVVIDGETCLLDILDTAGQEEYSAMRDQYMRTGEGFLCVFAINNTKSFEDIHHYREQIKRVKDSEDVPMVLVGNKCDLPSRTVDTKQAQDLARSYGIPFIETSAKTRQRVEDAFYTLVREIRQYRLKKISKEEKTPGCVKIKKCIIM

[4] = Hepatic extraction ratio in human hepatocytes at 10 uM incubated for 2 hrs by LC-MS analysis; type: ADME, cell-based, Hepatocyte; conditions: read-out: ERH
[5] = Hepatic extraction ratio in human liver microsomes; type: ADME, Microsome; conditions: read-out: ERH
[6] = Half life in presence of GSH in phosphate buffer at 1 uM at 37 degC by LC-MS/M analysis; type: physicochemical; conditions: phosphate buffer with GSH
[7] = Protein binding in mouse plasma; type: ADME, cell-free; conditions: read-out: PPB (converted)
[8] = Solubility in FaSSIF at pH 6.5; type: physicochemical
[9] = Apparent permeability in pig LLC-PK1 cells; type: ADME, cell-based, Sus scrofa; conditions: read-out: permeability
[10] = Permeability ratio in pig LLC-PK1 cells; type: ADME, cell-based, Sus scrofa
[11] = Protein binding in human plasma; type: ADME, cell-free; conditions: read-out: PPB (converted)
[12] = system: GTPase KRas (Homo sapiens), P01116 [G12C]; test: Inhibition of KRAS G12C mutant in human NCI-H358 cells assessed as reduction in ERK phosphorylation incubated for 3 hrs by in-cell western method
Sequence of GTPase KRas (Homo sapiens), P01116 [G12C] (P01116 whole entry G12C): as above

[13] = Drug metabolism in mouse hepatocytes assessed as parent compound remaining at 10 uM incubated for 2 hrs by LC-MS analysis; type: ADME, cell-based, Hepatocyte; conditions: read-out: Stability
[14] = Clearance in CD1 mouse at 3 mg/kg, iv; type: ADME, organism-based; conditions: in vivo
[15] = Half life in CD1 mouse at 3 mg/kg, iv; type: ADME, organism-based; conditions: in vivo
[16] = Volume of distribution at steady state in CD1 mouse at 3 mg/kg, iv; type: ADME, organism-based; conditions: in vivo, read-out: Vdss
[17] = system: GTPase KRas (Homo sapiens), P01116 [G12C]; test: In-vivo target engagement at KRAS G12C mutant in athymic nude-Foxn1nu mouse xenografted with human NCI-H358 cells assessed as KRAS G12C modification level in tumor lysate at 10 mg/kg, po dosed via gavage as single administration measured after 6 hrs by LC-MS analysis relative to control; type: functional, organism-based; conditions: Neoplasm
[18] = Cmax in CD1 mouse at 30 mg/kg, po; type: ADME, organism-based; set-up: dose 30 mg/kg, route oral; conditions: in vivo
[19] = Tmax in CD1 mouse at 30 mg/kg, po; type: ADME, organism-based; conditions: in vivo
[20] = AUC (infinity) in CD1 mouse at 30 mg/kg, po; type: ADME, organism-based; set-up: dose 30 mg/kg, time infinity, route oral; conditions: in vivo
[21] = Oral bioavailability in CD1 mouse at 30 mg/kg; type: ADME, organism-based; conditions: in vivo
[22] = system: GTPase KRas (Homo sapiens), P01116 [G12C]; test: In-vivo target engagement at KRAS G12C mutant in athymic nude-Foxn1nu mouse xenografted with human NCI-H358 cells assessed as KRAS G12C modification level in tumor lysate at 30 mg/kg, po dosed via gavage as single administration measured after 6 hrs by LC-MS analysis relative to control; type: functional, organism-based; conditions: Neoplasm
[23] = system: GTPase KRas (Homo sapiens), P01116 [G12C]; test: In-vivo target engagement at KRAS G12C mutant in athymic nude-Foxn1nu mouse xenografted with human NCI-H358 cells assessed as KRAS G12C modification level in tumor lysate at 100 mg/kg, po dosed via gavage as single administration measured after 6 hrs by LC-MS analysis relative to contro; type: functional, organism-based; conditions: Neoplasm
MIA PaCa-2 [24] = test: Antitumor activity against human MIAPaCa2 cells xenografted in athymic nude-Foxn1nu mouse assessed as induction of tumor regression at 30 mg/kg, po dosed daily via gavage for 16 days; type: functional
MIA PaCa-2 [25] = test: Antitumor activity against human MIAPaCa2 cells xenografted in athymic nude-Foxn1nu mouse assessed as induction of tumor regression at 30 mg/kg, po dosed daily via gavage for 16 days followed by drug cessation and measured up to 40 days; type: functional
[26] = Half life in beagle dog at 3 mg/kg, iv; type: ADME, organism-based, Canis lupus familiaris; conditions: in vivo
[27] = Clearance in beagle dog at 3 mg/kg, iv; type: ADME, organism-based, Canis lupus familiaris; conditions: in vivo
[28] = Volume of distribution at steady state in beagle dog at 3 mg/kg, iv; type: ADME, organism-based, Canis lupus familiaris; conditions: in vivo, read-out: Vdss
[29] = Cmax in beagle dog at 10 mg/kg, po; type: ADME, organism-based, Canis lupus familiaris; set-up: dose 10 mg/kg, route oral; conditions: in vivo
[30] = Tmax in beagle dog at 10 mg/kg, po; type: ADME, organism-based, Canis lupus familiaris; conditions: in vivo
[31] = target: Glutathione S-transferase P (Homo sapiens) (UniProt P09211); test: Drug metabolism in human whole blood assessed as GSTP1-1-mediated GSH conjugation; type: tissue-based
Sequence of Glutathione S-transferase P (Homo sapiens) (P09211 2-210 limits assumed): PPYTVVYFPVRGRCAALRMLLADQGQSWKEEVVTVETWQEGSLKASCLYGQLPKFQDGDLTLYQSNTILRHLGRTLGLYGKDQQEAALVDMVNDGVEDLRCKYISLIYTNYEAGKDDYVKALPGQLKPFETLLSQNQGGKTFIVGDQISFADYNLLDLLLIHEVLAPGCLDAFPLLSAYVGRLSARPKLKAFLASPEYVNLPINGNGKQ

[32] = AUC (infinity) in beagle dog at 10 mg/kg, po; type: ADME, organism-based, Canis lupus familiaris; set-up: dose 10 mg/kg, time infinity, route oral; conditions: in vivo
[33] = Oral bioavailability in beagle dog at 10 mg/kg; type: ADME, organism-based, Canis lupus familiaris; conditions: in vivo

SMILES: CN1CCC[C@H]1COc1nc2c(c(N3CCN(C(=O)/C=C/CF)[C@@H](CC#N)C3)n1)CCN(c1cccc3cccc(Cl)c13)C2
- half-life at 5 µM [1]: 11 h
- half-life at 5 µM [2]: 9 h
- half-life at 5 µM [3]: > 50 h
- IC50 (GTPase KRas): 3 nM

SMILES: C=CC(=O)N1CCN(c2nc(OC[C@@H]3CCCN3C)nc3c2CCN(c2c(C(F)(F)F)ccc4[nH]ncc24)C3)CC1
- hepatic extraction ratio at 2 h, 10 µM [4]: < 0.55
- hepatic extraction ratio [5]: < 0.55
- IC50 (GTPase KRas): 351 nM

SMILES: C=CC(=O)N1CCN(c2nc(OC[C@@H]3CCCN3C)nc3c2CCN(c2cccc4ccccc24)C3)CC1CO (some centres not stated)
- IC50 (GTPase KRas): 4630 nM

SMILES: C=CC(=O)N1CCN(c2nc(OC[C@@H]3CCCN3C)nc3c2CCN(c2cccc4ccccc24)C3)C[C@H]1CC#N
- half-life at 1 µM [6]: 1 h
- IC50 (GTPase KRas): 1020 nM

SMILES: C=CC(=O)N1CCN(c2nc(OC[C@@H]3CCCN3C)nc3c2CCN(c2cccc4cccc(OC)c24)C3)C[C@@H]1CC#N
- IC50 (GTPase KRas): 22 nM

SMILES: C=CC(=O)N1CCN(c2nc(OC[C@@H]3CCCN3C)nc3c2CCN(c2c(C(C)C)ccc4[nH]ncc24)C3)CC1
- IC50 (GTPase KRas): 1180 nM

SMILES: C=CC(=O)N1CCN(c2nc(OC[C@@H]3CCCN3C)nc3c2CCN(c2cccc4ccccc24)C3)CC1CC#N (some centres not stated)
- IC50 (GTPase KRas): 14 nM

SMILES: C=CC(=O)N1CCN(c2nc(OC[C@@H]3CCCN3C)nc3c2CCN(c2cccc4ccccc24)C3)C[C@@H]1CC#N
- hepatic extraction ratio at 2 h, 10 µM [4]: 0.9
- hepatic extraction ratio [5]: 0.45
- half-life at 1 µM [6]: 4 h
- fraction unbound [7]: 0.05
- solubility [8]: 800 µg/mL (≈ 1450 µM)
- Papp [9]: 2.2 ×10⁻⁶ cm/s
- Ratio [10]: 28
- fraction unbound [11]: 0.05
- IC50 (GTPase KRas): 10 nM
- fIC50 [12]: 200 nM

SMILES: C=CC(=O)N1CCN(c2nc(OC[C@@H]3CCCN3C)nc3c2CCN(c2cccc4ccccc24)C3)CC1CCO (some centres not stated)
- IC50 (GTPase KRas): > 5000 nM

- remaining at 2 h, 10 µM [13]: 4%
SMILES: C=CC(=O)N1CCN(c2nc(OC[C@@H]3CCCN3C)nc3c2CCN(c2cc(O)cc4ccccc24)C3)CC1

SMILES: C=CC(=O)N1CCN(c2nc(OC[C@@H]3CCCN3C)nc3c2CCN(c2c(CC)ccc4[nH]ncc24)C3)CC1
- IC50 (GTPase KRas): 1080 nM

SMILES: C=CC(=O)N1CCN(c2nc(OC[C@@H]3CCCN3C)nc3c2CCN(c2cccc4cccc(C)c24)C3)C[C@@H]1CC#N
- clearance [14]: 31.6 mL/min/kg
- half-life [15]: 1.33 h
- Vd [16]: 1.91 L/kg
- Activity [17]: 20%
- Cmax [18]: 1660 ng/mL
- Tmax [19]: 0.5 h
- AUC(0-inf) [20]: 4910 ng·h/mL
- bioavailability [21]: 31.1%
- Activity [22]: 60%
- Activity [23]: 80%
- Activity (MIA PaCa-2 [24]): 100%
- Activity (MIA PaCa-2 [25]): 100%
- half-life [26]: 0.966 h
- clearance [27]: 151 mL/min/kg
- Vd [28]: 6.16 L/kg
- Cmax [29]: 17.8 ng/mL
- Tmax [30]: 1.17 h
- Drug metabolism [31]: Metabolite detected
- AUC(0-inf) [32]: 39.5 ng·h/mL
- bioavailability [33]: 3.67%
- IC50 (GTPase KRas): 1 nM
